Among the test systems are CCRF-CEM leukemia; SW-620 colon; A498 renal; SK-MEL-5 melanoma; CAKI-1 renal; SF-268 CNS; SR leukemia; MDA-MB-231 breast; RXF 393 renal; SK-OV-3 ovarian.
Common to all, as to assay: NCI anticancer screen, dose series, 48 h

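Compound exposure: 48 hours, 5 concentrations, 96-well plates. The concentration for 50% growth inhibition is given as GI50. TGI: concentration producing complete growth inhibition.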

Regarding `CC(C)Oc1ccc2cc(-c3nn(CC4CCNCC4)c4ncnc(N)c34)ccc2c1`, the GI50 with CCRF-CEM leukemia was 3.98 µM; in the assay on SW-620 colon it was 13.2 µM; in the assay on A498 renal, 14.2 µM; in the assay on SK-MEL-5 melanoma, 11.6 µM; in the assay with CAKI-1 renal it was 10.9 µM; in the assay with SF-268 CNS, 8.8 µM. For the same molecule, the GI50 is 1.53 µM with SR leukemia, 3.05 µM in the assay with MDA-MB-231 breast, 2.78 µM with RXF 393 renal and 13.8 µM in the assay on SK-OV-3 ovarian. In addition, the TGI turned out to be 16.9 µM in the assay with CCRF-CEM leukemia; 26.8 µM in the assay with SW-620 colon; 28.2 µM in the assay with A498 renal; 23.8 µM in the assay on SK-MEL-5 melanoma; 22.9 µM with CAKI-1 renal; 23.5 µM in the assay on SF-268 CNS. Also, the TGI in the assay with SR leukemia stood at 4.44 µM; in the assay with MDA-MB-231 breast it was 9.94 µM; in the assay with RXF 393 renal, 9.73 µM; with SK-OV-3 ovarian, 27.9 µM.

Take `COc1ccc2[nH]cc(C3(c4c[nH]c5ccc(OC)cc45)C(=O)Nc4ccc(F)cc43)c2c1`: the GI50 in the assay with CCRF-CEM leukemia is 3.04 µM; in the assay on SW-620 colon, 3.04 µM; in the assay on A498 renal, 2.56 µM; in the assay with SK-MEL-5 melanoma, 1.98 µM; with CAKI-1 renal, 2.29 µM; in the assay on SF-268 CNS it was 3.17 µM. The GI50 was 2.03 µM in the assay with SR leukemia, 1.57 µM with MDA-MB-231 breast, 2.31 µM in the assay with RXF 393 renal and 3.59 µM in the assay with SK-OV-3 ovarian. Moreover, the TGI in the assay on CCRF-CEM leukemia was found to be 22.4 µM; in the assay with SW-620 colon, 11.5 µM; in the assay with A498 renal, 12 µM; in the assay on SK-MEL-5 melanoma, 4.77 µM; in the assay with CAKI-1 renal, 10.6 µM; in the assay on SF-268 CNS, 12.7 µM. For the same molecule, the TGI in the assay with SR leukemia came out at 4.97 µM; with MDA-MB-231 breast, 3.56 µM; with RXF 393 renal it was 6.54 µM; in the assay with SK-OV-3 ovarian it was 13.5 µM.

On to `O=C1C=CC(=O)c2cc3cc(CBr)ccc3cc21`, for which the GI50 in the assay with CCRF-CEM leukemia is 1.89 µM; in the assay with SW-620 colon it was 2.29 µM; in the assay with A498 renal, 17.5 µM; with SK-MEL-5 melanoma, 14.9 µM; with CAKI-1 renal, 2.34 µM; with SF-268 CNS, 9.4 µM. Further, the GI50 in the assay on SR leukemia is 0.0371 µM; in the assay on MDA-MB-231 breast it was 1.95 µM; in the assay on RXF 393 renal it was 11 µM; in the assay with SK-OV-3 ovarian, 19.1 µM. Also, the TGI in the assay on CCRF-CEM leukemia was above 100 µM; in the assay on SW-620 colon, 4.97 µM; in the assay with A498 renal, 34.4 µM; in the assay with SK-MEL-5 melanoma it was 36 µM; in the assay on CAKI-1 renal it was 6.25 µM; with SF-268 CNS, above 73.9 µM. Also, the TGI in the assay on SR leukemia was 0.0923 µM; in the assay with MDA-MB-231 breast it was 8.09 µM; in the assay with RXF 393 renal, 27.9 µM; in the assay with SK-OV-3 ovarian, above 57.6 µM.

In the case of `COc1c(OC[C@H](O)CN2CCOCC2)ccc2c3n(c(=NC(=O)c4cccnc4C)nc12)CCN3`, the GI50 with CCRF-CEM leukemia was 1.67 µM; with SW-620 colon, 49.4 µM; in the assay with A498 renal, 0.167 µM; with SK-MEL-5 melanoma, above 50 µM; with CAKI-1 renal, 0.859 µM; in the assay with SF-268 CNS it was 12.4 µM. Further, the GI50 in the assay on SR leukemia is above 50 µM; in the assay on MDA-MB-231 breast it was above 50 µM; in the assay with RXF 393 renal it was 0.192 µM; in the assay with SK-OV-3 ovarian, 0.115 µM. In addition, the TGI is above 50 µM in the assay on CCRF-CEM leukemia; above 50 µM with SW-620 colon; 1.85 µM in the assay on A498 renal; above 50 µM with SK-MEL-5 melanoma; above 50 µM in the assay on CAKI-1 renal; above 50 µM in the assay on SF-268 CNS. Moreover, the TGI is above 50 µM in the assay on SR leukemia, above 50 µM in the assay with MDA-MB-231 breast, 2.38 µM in the assay on RXF 393 renal and 2.27 µM in the assay on SK-OV-3 ovarian.
